The values below come from US20100119494A1, “METHODS AND COMPOSITIONS RELATED TO MODULATING THE EXTRACELLULAR STEM CELL ENVIRONMENT” (Massachusetts Institute of Technology, priority 2005, published 2010).

Assay type in all cases: cell-based, mouse
One assay concerns ES cells. The experiment in a line: Optimization of culture conditions for differentiation of ES cells into endothelial cells (marker expression). To be noted: 15% FBS present, LIF absent.
For assay [1], the system named is phosphorylation of ERK1/2 (MAPK pathway). The experiment in a line: Western blot of phospho-ERK normalized to total ERK1/2 in differentiating ES cells. The conditions noted are these: exogenous heparin added to treated cells. As to the method:
(§1) Heparinase III (Hep-III) was prepared as described previously (Godavarti, R., et al. (1996) Biochemistry 35, 6846-52). Heparinase I (Hep-I) was a generous gift of Momenta Pharmaceuticals (Cambridge, Mass.). Sodium chlorate and heparin were purchased from Sigma and Cambrex BioWhittaker (East Rutherford, N.J.), respectively. To enzymatically modify the HSGAG glycome signature of the cells, cells were washed with phosphate buffer saline (PBS) and incubated with Hep-I or Hep-III for 30 minutes every day at 37° C. in serum free DMEM. Digested HSGAG residues were removed by washing the cells, and cells were then fed with fresh media. In an additional experiment, cells were cultured with medium containing sodium chlorate, which blocks the sulfation of HSGAGs. In a reversal experiment, heparin was added to the culture to overcome the chlorate induced synthetic block. Treated cells were analyzed for differentiation into endothelial cells between day 3 and day 15. Hep-III was added to the cells at a concentration of 2.5 μg/mL, Hep-I was added at a concentration of 1.5 μg/mL, sodium chlorate at 10 mM and heparin (20 μg). The concentrations of enzymes were optimized to exhaustively cleave all cell surface HSGAGs in the given period of time. All enzymes and chemicals were diluted in serum free DMEM.
For elucidating the biochemical pathways involved downstream of the modulation of the cell surface sugars, protein contents of the embryoid bodies were solubilized by rapid mixing with 3× SDS sample buffer under reducing conditions. Equivalent amounts of protein per sample were electrophoretically resolved on 4-12% gradient polyacrylamide gels and transferred onto a nitrocellulose (0.22 μm) membrane. The membrane was subsequently probed with a phosphor-ERK antibody (1:800 dilution, Cell Signaling Technologies, Danvers, Mass.), which specifically detects the phosphorylated forms of ERK1 and 2. The signal was amplified using a 1:2000 dilution of the appropriate horseradish peroxidase-conjugated secondary antibody (BioRad, Hercules, Calif.), and the immunocomplexes were visualized using enhanced chemiluminescence detection (Amersham Life Science, Piscataway, N.J.). The signal was normalized to the expression of total ERK1/2, which was detected on the same blot using ERK1/2 specific antibodies (Santa Cruz, Santa Cruz, Calif., used at a 1:200 dilution). Quantification of the luminescence signal was carried out by a Kodak 2000R imager.
The MAPK pathway is the downstream convergence point of the signaling of several angiogenic factors such as VEGF, FGF, HGF, EGF, PDGF and angiopoietins (Sengupta, S., et al. (2003) Arterioscler Thromb Vasc Biol 23, 69-75). […]
On the technique in general: Immunoblotting shows a protein as a band on a membrane.

The subject of assay [2] is differentiating ES cells (J1). The experiment in a line: Real-time PCR of Oct-4, VEGF-R2, VE-cadherin and eNOS transcripts in differentiating ES cells. To be noted: heparin added to sodium chlorate treated ES cells. As to the method:
(§2) Mouse embryonic stem cells (J1) (gift from Bevin Engelward, Mass. Institute of Technology, Cambridge, Mass.) were grown in DMEM with 2 mM L-glutamine (GIBCO, Carlsbad, Calif.) adjusted to contain […] sodium pyruvate, 10 mM nonessential amino acids and 1.5 g/L sodium bicarbonate, with 15% fetal bovine serum (Hyclone, South Logan, Utah) and supplemented with 100 units/mL penicillin G (Sigma, St. Louis, Mo.), 100 μg/mL streptomycin sulfate (Sigma), 30 mM beta-mercaptoethanol (Sigma) and 1000 units/ml murine leukemia inhibitory factor, LIF (Chemicon, Temecula, Calif.). The cells were plated in 10 cm^2 cell culture dishes, coated with 0.1% gelatin B (Sigma) and grown at 37° C. in a 5% CO2 humidifier incubator. The culture medium was changed every 2 days. The cells were subcultured at a split ratio of 1:10 when they reached 80% to 90% confluency, using a 0.25% trypsin-EDTA solution (Sigma). To induce formation of embryoid bodies and differentiation into endothelial cells, J1 cells were plated at a density of 1.25×10^5 cells/100 mm dish, or 3×10^4 cells/6 wells and cultured in the absence of LIF. Fresh media was replenished every 2 days.
as §1
RNA was isolated from J1 cells using TRIzol (Invitrogen, Carlsbad, Calif.) and RNAlater (Qiagen, Valencia, Calif.) according to the manufacturer's protocol. Single-stranded cDNA was generated via oligo-dT primed reverse transcription, and genes serving as markers for differentiation were quantified using an Abi Prism 7700 real-time PCR thermocycler (Applied Biosystems, Foster City, Calif.). Expression levels were obtained for the marker genes Oct-4, VE-cadherin, VEGF-R2, and eNOS, with β-actin used as a control. PCR conditions involved denaturation for 10 min at 95° C., followed by 40 cycles of denaturation for 20 sec at 94° C., and annealing and extension for 1 min at 60° C. cDNA isolated from J1 cells and primers for the described genes were mixed with SYBR Green PCR Mastermix (Applied Biosystems) for real-time quantification according to the manufacturers instructions. Primers used were 5′-[…]-3′ (SEQ ID NO: 1) and 5′-[…]-3′ (SEQ ID NO: 2) for Oct-4; 5′-[…]-3′ (SEQ ID NO: 3) and 5′-[…]-3′ (SEQ ID NO: 4) for VE-cadherin; 5′-[…]-3′ (SEQ ID NO: 5) and 5′-[…]-3′ (SEQ ID NO: 6) for TIE-2; 5′-[…]-3′ (SEQ ID NO: 7) and 5′-[…]-3′ (SEQ ID NO: 8) for VEGF-R2; 5′-[…]-3′ (SEQ ID NO: 9) and 5% […]-3′ (SEQ ID NO: 10) for ENOS; 5′-[…]-'3 (SEQ ID NO: 11) and 5′-[…]-'3 (SEQ ID NO: 12) for 13-actin. The sulfotransferase primers and conditions were chosen. […]
On the technique in general: Real-time PCR tracks product formation cycle by cycle.

For assay [3], the system named is differentiating ES cells (J1). Kind of assay: Confocal microscopy of vWF and Oct-4 staining in differentiating ES cells. To be noted: heparin added to sodium chlorate treated ES cells during differentiation; FIG. 15C. Here is the method:
as §2, §1
For microscopic analysis of endothelial cells, the differentiating J1 cells were fixed in cold methanol at designated time points, blocked in goat serum and probed overnight with a rabbit primary antibody against vWF, an endothelial cell marker, or Oct-4, a stem cell marker. The sections were washed and re-probed with a goat secondary antibody coupled to FITC. The nuclei were counterstained with propidium iodide. Images were captured using a […] LSM510 confocal microscope at a 512×512 pixels resolution (Leica, Bannockburn, Ill.). Fluorochromes were excited with 488 nm and 543 nm laser lines, and the images were captured using 505-530 BP and 565-615 BP filters at a 512×512 pixels resolution.
To dissect the role of HSGAG structure in ES cell differentiation, the cell surface and extracellular HSGAG moieties of differentiating ES cells were modified using an enzymatic and pharmacological approach. Specifically, differentiating ES cells were incubated with Hep-I or Hep-III for 30 minutes every day to cleave the cell surface and extracellular matrix (ECM) HSGAGs at structurally distinct sites, or cultured in media supplemented with sodium chlorate, which is a pharmacological inhibitor of HSGAG biosynthesis (Safaiyan, F., et al. (1999) J Biol Chem 274, 36267-73). Hep-I cleaves HSGAGs at highly sulfated regions, and Hep-III cleaves HSGAGs at undersulfated regions (Linhardt, R. J., et al. (1990) Biochemistry 29, 2611-7; Godavarti, R., and Sasisekharan, R. (1996) Biochem Biophys Res Commun 229, 770-7). […]

As to VEGF, the “effect of exogenous addition of growth factors on differentiation into endothelial cells” value with ES cells was “No effects”.

For heparin [reference compound], in assay [1], the “phosphorylation of ERK1/2, reversal of inhibition” value was “inhibition is reversed”. In assay [2], the “VE-cadherin transcript levels, reconstitution” value is recorded as “increased” and the “eNOS transcript levels, reconstitution” value was “increased”. Further, the “vWF staining (confocal microscopy), reconstitution” value in assay [3] is listed as “increased vWF staining”.

On to “HGF: growth factor added exogenously to the culture”, for which the “effect of exogenous addition of growth factors on differentiation into endothelial cells” value with ES cells is listed as “No effects”.

In the case of “insulin: listed among growth factors added exogenously to the culture”, the “effect of exogenous addition of growth factors on differentiation into endothelial cells” value with ES cells is “No effects”.
